This is an account of results in patent US8680122B2, “Substituted pyrrolones as allosteric modulators of glucokinase” (Janssen Pharmacetica N.V., priority 2005, dated 2014).

Where “and” joins values, the source holds several entries; their conditions need not be identical. Equal entries are not always repeated.

One experiment has as its target T1, Liver GK (Homo sapiens, UniProt P35557).
T1 construct: (His)6; made in house; host or cells: Escherichia coli
T1 sequence (P35557 1-466 isoform P35557-2): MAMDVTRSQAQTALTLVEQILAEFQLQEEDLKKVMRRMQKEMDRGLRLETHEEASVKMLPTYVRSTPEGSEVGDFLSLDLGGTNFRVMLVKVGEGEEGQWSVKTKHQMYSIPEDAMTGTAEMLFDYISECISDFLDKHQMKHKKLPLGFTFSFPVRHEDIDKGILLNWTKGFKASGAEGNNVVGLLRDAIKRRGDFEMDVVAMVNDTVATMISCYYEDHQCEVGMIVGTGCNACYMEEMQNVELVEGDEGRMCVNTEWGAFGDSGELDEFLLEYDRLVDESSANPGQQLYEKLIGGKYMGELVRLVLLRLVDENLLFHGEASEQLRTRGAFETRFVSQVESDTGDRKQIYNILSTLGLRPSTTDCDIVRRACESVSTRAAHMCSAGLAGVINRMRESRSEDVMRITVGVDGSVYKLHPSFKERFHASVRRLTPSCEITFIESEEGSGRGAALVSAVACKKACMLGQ
Nature of the experiment: Glucokinase enzyme assay, liver GK. Format: biochemical. As to conditions: for activation at 50 µM: percentage increase in GK activity above vehicle control, compound 50 μM, 12 mM glucose; for EC50: concentration that produces 50% activation above the vehicle control; for EC100%: concentration that produces 100% activation above the vehicle control. The text has this:
(§1) An enzymatic Glucokinase (GK) assay using purified recombinant human liver/pancreas enzyme was used to evaluate the effects of potential small molecule modulators.
(§2) In this assay, GK catalyzes glucose phosphorylation in the presence of ATP. The product of this reaction, glucose-6-phosphate, was then oxidized by an excess of glucose-6-phosphate dehydrogenase to produce gluconate-6-phosphate with concomitant reduction of nicotinamide adenine dinucleotide (NAD). […] Human GK (Liver/Pancreas) was expressed in Escherichia coli as a (His) 6-tagged fusion protein and was purified by metal chelate affinity chromatography. The assay was performed in a final incubation volume of 80 μl in a 96-well clear low UV absorption plates. The incubation mixture consisted of 25 mM HEPES, 2 mM MgSO4, 1 mM dithiothreotol (DTT), 1 mg/mL bovine serum albumin (BSA), 1 mM ATP, 1 mM NAD, and 12 mM glucose, 10 units per mL glucose-6-phosphate dehydrogenase, and +/−300 ng per mL GK. For determination of the affinity (Km) and Vmax, different concentrations of glucose ranging from 0.5 mM to 40 mM were used in the assay; see Grimsby, J., Sarabu, R.; Grippo, J. F.; et. al. Science 2003, 301, 370-373. Production of reduced NAD (Nicotinamide Adenine Dinucleotide) was measured as changes in absorption at 340 nm in 96-well plate reader (Envision model #2101 Multilabel Plate reader). % Activation @ 50 μM was calculated as the percentage increase in GK activity above the vehicle control with the effective concentration of the compound being 50 μM. EC50% (μM) was calculated as the effective concentration of the compound that produces 50% activation above the vehicle control, and EC100% (μM) was calculated as the effective concentration of the compound that produces 100% activation above the vehicle control.

The target in a further experiment is T2, Pancreas GK (Homo sapiens, UniProt P35557).
T2 construct: (His)6; made in house; host or cells: Escherichia coli
T2 sequence (P35557 1-465): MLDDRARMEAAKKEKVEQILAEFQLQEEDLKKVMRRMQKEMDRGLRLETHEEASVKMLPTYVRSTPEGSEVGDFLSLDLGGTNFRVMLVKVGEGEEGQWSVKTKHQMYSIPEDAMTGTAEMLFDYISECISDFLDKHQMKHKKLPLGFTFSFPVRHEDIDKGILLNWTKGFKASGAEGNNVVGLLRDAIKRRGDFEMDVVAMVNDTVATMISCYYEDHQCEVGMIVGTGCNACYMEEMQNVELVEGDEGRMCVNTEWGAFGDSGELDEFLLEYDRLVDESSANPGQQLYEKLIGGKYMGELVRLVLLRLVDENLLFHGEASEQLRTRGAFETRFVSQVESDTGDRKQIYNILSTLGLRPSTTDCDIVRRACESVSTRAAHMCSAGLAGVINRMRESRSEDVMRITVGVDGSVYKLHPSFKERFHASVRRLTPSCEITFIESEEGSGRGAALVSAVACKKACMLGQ
Nature of the experiment: Glucokinase enzyme assay, pancreas GK. As to conditions: for activation at 50 µM: percentage increase in GK activity above vehicle control, compound 50 μM, 12 mM glucose; for EC50: concentration that produces 50% activation above the vehicle control; for EC100%: concentration that produces 100% activation above the vehicle control. Format: biochemical.
Text: as §1, §2

As for `COc1ccc(CN2C(=O)C(C)=C(C)[C@H]2S[C@H](C)C(=O)Nc2ccccn2)cc1` (stereo in doubt) [Compound 32, 2-[1-(4-Methoxy-benzyl)-3,4-dimethyl-5-oxo-2,5-dihydro-1H-pyrrol-2-ylsulfanyl]-N-pyridin-2-yl-propionamide], the activation at 50 µM at Liver GK was found to be 37%; at Pancreas GK it was 24%.

On to `COc1ccc(CN2C(=O)C(C)=C(C)C2SCC(=O)Nc2nccs2)cc1` (stereo not shown) [Compound 2, 2[1-(4-Methoxy-benzyl)-3,4-dimethyl-5-oxo-2,5-dihydro-1H-pyrrol-2-ylsulfanyl]-N-thiazol-2-yl-acetamide], for which, on Liver GK, the EC50 was 9.4 µM and the activation at 50 µM was found to be 169%.

With `COc1ccc(CN2C(=O)C(c3ccccc3)=CC2SCC(=O)Nc2nccs2)cc1` (stereo not shown) [Compound 3, 2-[1-(4-Methoxy-benzyl)-5-oxo-4-phenyl-2,5-dihydro-1H-pyrrol-2-ylsulfanyl]-N-thiazol-2-yl-acetamide], the activation at 50 µM at Liver GK worked out at 64.9%.

On to `COC(=O)c1ccc(NC(=O)CSC2C(c3ccccc3)=C(c3ccccc3)C(=O)N2Cc2ccc(OC)cc2)nc1` (stereo not shown) [Compound 4], for which, at Liver GK, the EC50 was 19.8 µM and 24.5 µM; the “EC100%” value was 37.3 µM and 30.4 µM.

Regarding `COc1ccc(CN2C(=O)C(C)=C(C)C2SCC(=O)Nc2ccccn2)cc1` (stereo not shown) [Compound 5, 2-[1-(4-Methoxy-benzyl)-3,4-dimethyl-5-oxo-2,5-dihydro-1H-pyrrol-2-ylsulfanyl]-N-pyridin-2-yl-acetamide], on Liver GK, the EC50 was determined as 3.3 µM, the “EC100%” value stood at 8.3 µM and the activation at 50 µM was found to be 222%.

With `COc1ccc(CN2C(=O)C(C)=C(C)C2SCC(=O)Nc2cnccn2)cc1` (stereo not shown) [Compound 6, 2-[1-(4-Methoxy-benzyl)-3,4-dimethyl-5-oxo-2,5-dihydro-1H-pyrrol-2-ylsulfanyl]-N-pyrazin-2-yl-acetamide], on Liver GK, the EC50 turned out to be 6.3 µM, the “EC100%” value worked out at 20.1 µM and the activation at 50 µM is 175%.

`CCOC(=O)Cc1csc(NC(=O)CSC2C(C)=C(C)C(=O)N2Cc2ccc(OC)cc2)n1` (stereo not shown) [Compound 7, (2-{2-[1-(4-Methoxy-benzyl)-3,4-dimethyl-5-oxo-2,5-dihydro-1H-pyrrol-2-ylsulfanyl]-acetylamino}-thiazol-4-yl)-acetic acid ethyl ester]: on Liver GK, the EC50 was determined as 11.6 µM, the “EC100%” value stood at 38.9 µM and the activation at 50 µM was 114%.

Take `COc1ccc(CN2C(=O)C(C)=C(C)C2SCC(=O)Nc2ccc(Cl)cn2)cc1` (stereo not shown) [Compound 8, N-(5-Chloro-pyridin-2-yl)-2-[1-(4-methoxy-benzyl)-3,4-dimethyl-5-oxo-2,5-dihydro-1H-pyrrol-2-ylsulfanyl]-acetamide]: on Liver GK, the EC50 is 2.72 µM, the “EC100%” value is 9.77 µM and the activation at 50 µM turned out to be 169%.

In the case of `COc1ccc(CN2C(=O)C(C)=C(C)C2SCC(=O)Nc2ccc(C)cn2)cc1` (stereo not shown) [Compound 9, 2-[1-(4-Methoxy-benzyl)-3,4-dimethyl-5-oxo-2,5-dihydro-1H-pyrrol-2-ylsulfanyl]-N-(5-methyl-pyridin-2-yl)-acetamide], on Liver GK, the EC50 was 1.4 µM, the “EC100%” value was 4.9 µM and the activation at 50 µM was found to be 215%.

Take `COc1ccc(CN2C(=O)C(C)=C(C)C2SCC(=O)Nc2ccccn2)c(OC)c1` (stereo not shown) [Compound 10, 2-[1-(2,4-Dimethoxy-benzyl)-3,4-dimethyl-5-oxo-2,5-dihydro-1H-pyrrol-2-ylsulfanyl]-N-pyridin-2-yl-acetamide]: on Liver GK, the EC50 was found to be 12.2 µM, the “EC100%” value was 39.92 µM and the activation at 50 µM turned out to be 128%.

Regarding `COc1ccc(CN2C(=O)C(C)=C(C)C2SCC(=O)Nc2ccccn2)cc1OC` (stereo not shown) [Compound 11, 2-[1-(3,4-Dimethoxy-benzyl)-3,4-dimethyl-5-oxo-2,5-dihydro-1H-pyrrol-2-ylsulfanyl]-N-pyridin-2-yl-acetamide], at Liver GK, the EC50 was found to be 2.41 µM, the “EC100%” value turned out to be 5.83 µM and the activation at 50 µM is 243%.

`CC1=C(C)C(SCC(=O)Nc2ccccn2)N(Cc2ccc(F)cc2)C1=O` (stereo not shown) [Compound 12, 2-[1-(4-Fluoro-benzyl)-3,4-dimethyl-5-oxo-2,5-dihydro-1H-pyrrol-2-ylsulfanyl]-N-pyridin-2-yl-acetamide]: on Liver GK, the EC50 turned out to be 2.9 µM, the “EC100%” value was 8.72 µM and the activation at 50 µM was found to be 198%.

With `COc1ccc(CN2C(=O)C(C)=CC2SCC(=O)Nc2ccccn2)cc1` (stereo not shown) [Compound 15, 2-[1-(4-Methoxy-benzyl)-4-methyl-5-oxo-2,5-dihydro-1H-pyrrol-2-ylsulfanyl]-N-pyridin-2-yl-acetamide], on Liver GK, the EC50 was found to be 10 µM, the “EC100%” value was found to be 37.08 µM and the activation at 50 µM came out at 122%.

Turning to `CC1=C(C)C(SCC(=O)Nc2ccccn2)N(Cc2ccc(OC(F)F)cc2)C1=O` (stereo not shown) [Compound 16, 2-[1-(4-Difluoromethoxy-benzyl)-3,4-dimethyl-5-oxo-2,5-dihydro-1H-pyrrol-2-ylsulfanyl]-N-pyridin-2-yl-acetamide], on Liver GK, the EC50 was found to be 6.76 µM, the “EC100%” value worked out at 17.01 µM and the activation at 50 µM came to 166%.

Consider `COc1ccc(CN2C(=O)C(C)=C(C)C2SCC(=O)Nc2ccc(C(=O)O)cn2)cc1` (stereo not shown) [Compound 33], for which the EC50 on Pancreas GK was 2.5 µM and 1.6 µM.

With `CC1=C(C)C(SCC(=O)Nc2ccccn2)N(Cc2ccc(N(C)C)cc2)C1=O` (stereo not shown) [Compound 34, 2-[1-(4-Dimethylamino-benzyl)-3,4-dimethyl-5-oxo-2,5-dihydro-1H-pyrrol-2-ylsulfanyl]-N-pyridin-2-yl-acetamide], at Pancreas GK, the EC50 is 2.5 µM, the “EC100%” value amounted to 12 µM and the activation at 50 µM was determined as 163%.

In the case of `COC(=O)c1ccc(NC(=O)CSC2C(C)=C(C)C(=O)N2Cc2ccc(F)cc2)nc1` (stereo not shown) [Compound 35, 6-{2-[1-(4-Fluoro-benzyl)-3,4-dimethyl-5-oxo-2,5-dihydro-1H-pyrrol-2-ylsulfanyl]-acetylamino}-nicotinic acid methyl ester], at Pancreas GK, the EC50 was 0.98 µM, the “EC100%” value is 5.3 µM and the activation at 50 µM stood at 156%.

As for `COC(=O)c1ccc(NC(=O)CSC2C(C)=C(C)C(=O)N2Cc2ccc(OC(F)F)cc2)nc1` (stereo not shown) [Compound 36, 6-{2-[1-(4-Difluoromethoxy-benzyl)-3,4-dimethyl-5-oxo-2,5-dihydro-1H-pyrrol-2-ylsulfanyl]-acetylamino}-nicotinic acid methyl ester], at Pancreas GK, the EC50 stood at 2.5 µM and the “EC100%” value turned out to be 18 µM.

Consider `COC(=O)c1ccc(NC(=O)CSC2C(C)=C(C)C(=O)N2Cc2ccc3c(c2)CCO3)nc1` (stereo not shown) [Compound 37], for which, on Pancreas GK, the EC50 came out at 1.09 µM, the “EC100%” value is 1.09 µM and the activation at 50 µM was determined as 209%.

On to `COC(=O)c1ccc(NC(=O)CSC2C(C)=C(C)C(=O)N2Cc2cccs2)nc1` (stereo not shown) [Compound 38, 6-[2-(3,4-Dimethyl-5-oxo-1-thiophen-2-ylmethyl-2,5-dihydro-1H-pyrrol-2-ylsulfanyl)-acetylamino]-nicotinic acid methyl ester], for which, at Pancreas GK, the EC50 turned out to be 1.09 µM and the “EC100%” value worked out at 8.9 µM.

For the compound `COC(=O)c1ccc(NC(=O)CSC2C(C)=C(C)C(=O)N2Cc2ccc(OC)c(OC)c2)nc1` (stereo not shown) [Compound 39], on Pancreas GK, the EC50 was determined as 1.14 µM and the “EC100%” value came to 5.3 µM.

For `COC(=O)c1ccc(NC(=O)CSC2C(C)=C(C)C(=O)N2Cc2cc(OC)cc(OC)c2)nc1` (stereo not shown) [Compound 40], at Pancreas GK, the EC50 amounted to 2.3 µM and the “EC100%” value was 19 µM.
